Test results reported in patent publication US20100316631A1, “Water Soluble Curcumin-Based Compounds” (THE UAB RESEARCH FOUNDATION, priority 2006, published 2010).

Tests used:
[1] = test system: BxPC-3; assay: Cytotoxicity assay, BxPC-3 (pancreatic); conditions: Homo sapiens, BXPC-3, read-out: Cytotoxicity IC50, Bx-PC3
Method: (§1) The growth inhibitory effects of conjugates 5 and 8 were examined through a series of cytoxcicity assays against a variety of cancer cell types of human origin. The cell types tested were PC-3 (prostate), LS-174T (colon), MIA PaCa-2 (pancreatic) and BxPC-3 (pancreatic).
(§2) The surviving cell populations were counted on the fourth day after treatment (96 hour post-treatment). The viable cells were then counted and the numbers of treated cells were normalized against the untreated controls (taken as 100%).
(§3) Tumor cells (as indicated) were maintained as monolayers in 75-cm^2 tissue culture flasks using their respective cell culture medium containing 10% fetal bovine serum and 2 mM L-glutamine. Incubation was at 37° C. under a humidified 5% CO2: air atmosphere (standard conditions) for five days. The cells were harvested when in mid-log growth and their concentration was determined using a particle counter (Beckman Coulter, Inc, Fullerton, Calif.). An aliquot of the cell suspension was diluted in culture medium for delivery to a 24-well tissue culture plate at a range of 10,000 to 30,000 per 1 mL per well. […] Following a 96-h incubation under standard conditions from the initial treatment, the viable cells were counted and the numbers were normalized to the percent of untreated controls. […]

[2] = test system: MIA PaCa-2; assay: Cytotoxicity assay, MIA PaCa-2 (pancreatic); conditions: Homo sapiens, MIA PaCa-2, read-out: Cytotoxicity IC50, MIA PaCa-2
Method: as §1, §2, §3

[3] = test system: PC-3; assay: Cytotoxicity assay, PC-3 (prostate); conditions: Homo sapiens, PC-3, read-out: Cytotoxicity IC50, PC-3
Method: as §1, §2, §3

[4] = cited from earlier work
[5] = test system: LS-174T; assay: Cytotoxicity assay, LS-174T (colon); conditions: Homo sapiens, LS174T, read-out: Cytotoxicity IC50, LS-174T
Method: as §1, §2, §3

COc1cc(/C=C/C(=O)CC(=O)/C=C/c2ccc(O)c(OC)c2)ccc1O [Curcumin, (E,E)-1,7-bis(4-hydroxy-3-methoxyphenyl)-1,6-heptadiene-3,5-dione]
IC50 [1]: 2 ± 0.3 µM | IC50 [2]: 9 ± 2.5 µM | IC50 [3]: 12 ± 1.35 µM | solubility in water and other aqueous solutions [4]: insoluble | IC50 [5]: 6.5 ± 1.4 µM
